# Laboratory results from patent US20200188540A1, “CONFORMATIONALLY STRAINED TRANS-CYCLOALKENES FOR RADIOLABELING” (UNIVERSITY OF DELAWARE, priority 2015, published 2020).
# Legend:
# [1] = Stopped-flow kinetic analysis of Diels-Alder reaction of sTCO diastereomers with PEGylated tetrazine 11; details: for rate constant k2 with tetrazine 11: 55:45 MeOH:water at 25° C., stopped flow; for Mean k2: average of four sTCO concentrations, spread printed in cells below; for Mean k2 / k2 / kobs: tetrazine 11 0.05 mM, water:methanol 45:55, 25° C.; for kobs: in s-1 (unit assumed)
# Protocol: Stopped flow kinetic analysis was used to measure the rate of the Diels-Alder reaction between tetrazine derivative 11 and anti- and syn-diastereomers of sTCO (4 and 5, respectively). […] The latter is the fastest rate constant that has been described for a bioorthogonal reaction. For the present study, the inventors used stopped flow analysis to compare the relative rate of the syn- and anti-diastereomers 5 and 4 with tetrazine 11 in mixed organic/aqueous media (55:45 MeOH:water at 25° C.). As expected, the rates in MeOH:water were ˜9 fold slower than the measurements made in purely aqueous media, but still extremely rapid. The rate constant for the syn-diastereomer 5 with tetrazine 11 was k2 3.7×10^4 (+/−0.1×10^3) M^−1s^−1, and the anti-diastereomer 4 reacted with a rate constant k2 3.3×10^4 (+/−0.1×10^3) M^−1s^−1. Because the syn-diastereomer was more reactive it was chosen for further development
# The second order rate constant was measured under pseudo-first order conditions using an excess of the appropriate sTCO diastereomer (4 or 5), and by following the exponential decay of absorbance due to the tetrazine chromophore of 11 at 298 nm using an SX 18MV-R stopped-flow spectrophotometer (Applied Photophysics Ltd.). For each run, equal volumes of 45:55 water:methanol solutions of sTCO and PEGylated tetrazine 11 were mixed in the stopped flow device. Reactions were carried out with tetrazine 11 at 0.05 mM and final concentrations of 0.245, 0.49, 0.98 and 1.47 mM for the syn-diastereomer 5. Similarly, reactions were carried out with tetrazine 11 at 0.05 mM and final concentrations of 0.25, 0.50, 1.00 and 1.50 mM for the anti-diastereomer 4. A total of 400 data points were recorded over a period of 1 second, and each sample was performed in sextuplicate at 298 K. The kobs was determined by nonlinear regression analysis of the data points using Prism software (v. 6.00, GraphPad Software Inc.).
# The reaction between sTCOs 4 & 5 and the PEGylated tetrazine 11 was measured under pseudo-first order conditions in water:methanol 45:55 by following the exponential decay of the tetrazine at 298 nm over time using an SX 18MV-R stopped flow spectrophotometer (Applied Photophysics Ltd.). Solutions were prepared for the sTCO concentrations see table below water:methanol 45:55) and the tetrazine (0.1 mM in water:methanol 45:55) and thermostatted in the syringes of the spectrophotometer before measuring. 400 data points were recorded over a period of 1 second, and performed in sextuplicate at 298 K. The kobs was determined by nonlinear regression analysis of the data points using Prism software (v. 6.00, GraphPad Software Inc.).
# • PEGylated tetrazine 11 at 25° C. in water:methanol (45:55) measured under pseudo first order conditions using SX 18MV-R stopped flow spectrophotometer. Values were determined from an average of four runs. Synthesis and Characterization of a Conformationally Strained Trans-Cyclooctene with a Cis-Fused Cyclopentane Ring
# [2] = In vitro stability in 1× PBS buffer; type: physicochemical; details: 37° C.; for radiochemical purity after incubation in 1× PBS: 2 hours
# Protocol: (§1) An aliquot of the solution (˜25 μCi) was taken out and loaded on HPLC at 1 h and 2 h time points for analysis. ^18F-9 was also incubated in FBS at 37° C. and after 1 h, an aliquot of the solution (˜25 μCi) was taken out and added to an equal volume of TFA. Similarly, ^18F-15 was also incubated in FBS at 37° C., and at 2 and 4 h time points, aliquots of the solution (˜25 μCi) were taken and added to an equal volume of TFA. For each sample, the mixture was centrifuged at 14000 rpm for 5 min. The supernatant was then diluted with 1 mL water and loaded on C18 Sep-Pak. After washing with 1 mL water, the cartridge was eluted with 0.5 mL acetonitrile. The water fraction and acetonitrile fraction were combined and loaded on HPLC for analysis
# [3] = In vitro stability in fetal bovine serum (FBS); type: in vitro ADME; details: 37° C.
# Protocol: as §1
# [4] = microPET imaging in normal (non-tumor bearing) nude mice; type: in vivo; details: normal nude mouse
# Protocol: The inventors also performed microPET imaging with a normal (non-tumor bearing) nude mouse that had been injected with ^18F-9. […] The inventors also analyzed the clearance of the compound obtained by combining ^18F-9 with 11. This Diels-Alder conjugate—and analog of ^18F-15 that lacks the RGD moiety—still remained in the blood circulatory system after 4 hours. The blood uptake was 2.4% ID/g at 4 h post injection. The inventors have previously reported ^18F-labeled RGD probes derived from trans-cyclooctene 1.
# No background correction was performed.
# in vivo = details: mouse, iv, 3.7 MBq (100 uCi), total radioactivity
# Protocol: (§2) The localization of ^18F-15 in human U87MG tumor-bearing mice (n=5) was performed by static microPET scans at multiple time-point post tail vein injection. Selected decay-corrected coronal images at different time points were obtained after injection of 3.7 MBq (100 μCi) of ^18F-15. […] Data are expressed as average +/−SD.
# (§3) Animal procedures were performed according to a protocol approved by the UNC Institutional Animal Care and Use Committee. PET scans and image analysis were performed using a small animal PET scanner. Human U87MG tumor-bearing mice were anesthetized using 2% isoflurane and injected with 3.7 MBq (100 μCi) of ^18F-15 via the tail vein. At 0.5, 1.0, 2.0, and 4.0 h post injection, static emission scans were acquired for 10 min. Normal nude mice were injected with 3.7 MBq (100 μCi) of the Diels-Alder conjugate obtained by combining ^18F-9 and 11), or in a separate experiment by injecting only ^18F-9 using the same protocol. Raw PET images were reconstructed using 2D ordered subset expectation maximization (OSEM) algorithm. No background correction was performed. Regions of interest (ROI) were manually drawn over the tumor and other organs on the decay corrected coronal images. Based on the assumption that the tissue density is 1 g/mL, the ROIs were converted to % ID/g by dividing dose per gram at ROI by injected dose.
# (§4) Quantitative data were expressed as mean±SD. Means were compared using one-way ANOVA and Student's t test. P values<0.05 were considered statistically significant.
# human U87MG tumor = test: in vivo
# Protocol: as §2, §3, §4
compound,measurement,setting,value
FCCOCCOCCOC[C@@H]1[C@@H]2CC/C=C/CC[C@@H]21 [^18F-9],kinetics with diphenyl-s-tetrazines,[1]; general statement of reactivity,> 10^4 M^−1s^−1
same,radiopurity after incubation in 1× PBS,[2]; 1 hour,97.5%
same,radiochemical purity after incubation in 1× PBS,[2],97.3%
same,radiochemical purity retained in fetal bovine serum,[3]; 1 hour,74%
same,"time to clearance by the gallbladder, kidney and liver",[4],≤ 2 h
OCC1C2CCC=CCCC12 (stereo not drawn) [Compound 4],rate constant k2 with tetrazine 11,[1],3.3×10^4 (+/−0.1×10^3) M^−1s^−1
same,Mean k2,[1],"31,700 M^−1s^−1"
same,k2,[1]; resulting sTCO 0.25 mM,29832 M⁻¹ s⁻¹
same,kobs,[1]; resulting sTCO 0.25 mM,7.458
same,k2,[1]; resulting sTCO 0.5 mM,31680 M⁻¹ s⁻¹
same,kobs,[1]; resulting sTCO 0.5 mM,15.84
same,k2,[1]; resulting sTCO 1 mM,32510 M⁻¹ s⁻¹
same,kobs,[1]; resulting sTCO 1 mM,32.51
same,k2,[1]; resulting sTCO 1.5 mM,32653 M⁻¹ s⁻¹
same,kobs,[1]; resulting sTCO 1.5 mM,48.98
N=C(N)NCCC[C@@H]1NC(=O)C(CCCCNC(=O)CCOCCOCCOCCOCCOCCOCCOCCOCCOCCOCCOCCOCCNC(=O)OCc2ccc(C3=NNC(c4ccccc4)=C4CC[C@H]5[C@@H](CCC34)[C@H]5COCCOCCOCCF)cc2)NC(=O)[C@@H](Cc2ccc(O)cc2)NC(=O)[C@H](CC(=O)O)NC(=O)CNC1=O (stereo partly drawn) [^18F-15],radiochemical purity after incubation in 1× PBS,[2],98.5%
same,purity in fetal bovine serum,[3]; 2 hours post incubation,96.7%
same,purity in fetal bovine serum,[3]; 4 hours post incubation,94.5%
same,tissue uptake at 0.5 h,in vivo; tumor (U87MG),5.3 %ID/g
same,tissue uptake at 1 h,in vivo; tumor (U87MG),6.9 %ID/g
same,tissue uptake at 2 h,in vivo; tumor (U87MG),7.5 %ID/g
same,tissue uptake at 4 h,in vivo; tumor (U87MG),8.9 %ID/g
same,tissue to tissue ratio at 4 h,in vivo; tumor and kidney,2.4
same,tissue to tissue ratio at 4 h,in vivo; tumor and liver,1.6
same,tumor uptake relative to other major organs,human U87MG tumor; 4 h post injection,1.6-2.4 fold
same,"tracer uptake in tumor, blocking experiment","human U87MG tumor; co-injected with non-radio labeled cRGDyK (200 μg), 1 h post injection",4.8+/−0.3%
"OC[C@H]1[C@H]2CC/C=C/CC[C@@H]12 [Compound 5, (rel-1R,8S,9S,4E)-Bicyclo[6.1.0]non-4-ene-9-ylmethanol]",rate constant k2 with tetrazine 11,[1],3.7×10^4 (+/−0.1×10^3) M^−1s^−1
same,Mean k2,[1],"36,100 M^−1s^−1"
same,k2,[1]; resulting sTCO 0.245 mM,34347 M⁻¹ s⁻¹
same,kobs,[1]; resulting sTCO 0.245 mM,8.415
same,k2,[1]; resulting sTCO 0.49 mM,37571 M⁻¹ s⁻¹
same,kobs,[1]; resulting sTCO 0.49 mM,18.41
same,k2,[1]; resulting sTCO 0.98 mM,35796 M⁻¹ s⁻¹
same,kobs,[1]; resulting sTCO 0.98 mM,35.08
same,k2,[1]; resulting sTCO 1.47 mM,36857 M⁻¹ s⁻¹
same,kobs,[1]; resulting sTCO 1.47 mM,54.18
